{"source": "paper PMC11345841", "about": "“Exploring 2-Sulfonylpyrimidine Warheads as Acrylamide Surrogates for Targeted Covalent Inhibition: A BTK Story” (Journal of Medicinal Chemistry, 2024)", "key": {"FGFR1": {"biological_target": "T1, FGFR1 (Homo sapiens, UniProt P11362)", "T1 construct": "purchased Eurofins DiscoverX KINOMEscan (scanTK)", "experiment": "KINOMEscan ScanTK", "type": "binding"}, "EPHB6": {"biological_target": "T2, EPHB6 (Homo sapiens, UniProt O15197)", "T2 construct": "purchased Eurofins DiscoverX KINOMEscan (scanTK)", "T2 sequence (O15197 32-1021)": "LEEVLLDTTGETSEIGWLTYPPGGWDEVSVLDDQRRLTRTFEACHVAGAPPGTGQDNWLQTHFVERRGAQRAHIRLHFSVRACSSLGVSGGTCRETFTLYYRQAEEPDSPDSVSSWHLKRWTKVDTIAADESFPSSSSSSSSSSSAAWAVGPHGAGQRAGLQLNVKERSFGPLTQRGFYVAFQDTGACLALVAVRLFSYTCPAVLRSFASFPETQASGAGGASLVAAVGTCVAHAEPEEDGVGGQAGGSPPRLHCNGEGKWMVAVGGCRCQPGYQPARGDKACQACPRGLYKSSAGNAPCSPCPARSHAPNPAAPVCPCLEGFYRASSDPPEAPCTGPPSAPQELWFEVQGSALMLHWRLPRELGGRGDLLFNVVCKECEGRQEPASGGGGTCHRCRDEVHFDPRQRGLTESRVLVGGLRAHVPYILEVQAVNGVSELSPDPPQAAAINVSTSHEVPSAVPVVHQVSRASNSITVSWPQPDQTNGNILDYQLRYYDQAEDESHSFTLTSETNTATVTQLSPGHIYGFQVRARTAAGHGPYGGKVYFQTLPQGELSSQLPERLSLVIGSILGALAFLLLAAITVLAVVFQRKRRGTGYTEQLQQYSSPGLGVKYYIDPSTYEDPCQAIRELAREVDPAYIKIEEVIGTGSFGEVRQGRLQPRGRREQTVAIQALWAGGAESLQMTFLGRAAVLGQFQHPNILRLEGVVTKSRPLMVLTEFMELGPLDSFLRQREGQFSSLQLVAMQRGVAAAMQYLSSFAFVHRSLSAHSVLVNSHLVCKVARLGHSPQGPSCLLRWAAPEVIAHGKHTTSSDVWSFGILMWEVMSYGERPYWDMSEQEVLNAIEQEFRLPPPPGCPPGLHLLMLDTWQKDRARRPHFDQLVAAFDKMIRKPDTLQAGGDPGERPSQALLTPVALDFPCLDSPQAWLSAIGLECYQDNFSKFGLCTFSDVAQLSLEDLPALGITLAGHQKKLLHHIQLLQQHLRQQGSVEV", "experiment": "KINOMEscan ScanTK", "type": "binding"}, "FAK": {"biological_target": "T3, FAK (Homo sapiens, UniProt Q05397)", "T3 construct": "purchased Eurofins DiscoverX KINOMEscan (scanTK)", "experiment": "KINOMEscan ScanTK", "type": "binding"}, "YES": {"biological_target": "T4, YES (Homo sapiens, UniProt P07947)", "T4 construct": "purchased Eurofins DiscoverX KINOMEscan (scanTK)", "experiment": "KINOMEscan ScanTK", "type": "binding"}, "KIT(L576P)": {"biological_target": "T5, KIT(L576P) (Homo sapiens, UniProt P10721, L576P)", "T5 construct": "purchased Eurofins DiscoverX KINOMEscan (scanTK)", "T5 sequence (P10721 26-976 L576P)": "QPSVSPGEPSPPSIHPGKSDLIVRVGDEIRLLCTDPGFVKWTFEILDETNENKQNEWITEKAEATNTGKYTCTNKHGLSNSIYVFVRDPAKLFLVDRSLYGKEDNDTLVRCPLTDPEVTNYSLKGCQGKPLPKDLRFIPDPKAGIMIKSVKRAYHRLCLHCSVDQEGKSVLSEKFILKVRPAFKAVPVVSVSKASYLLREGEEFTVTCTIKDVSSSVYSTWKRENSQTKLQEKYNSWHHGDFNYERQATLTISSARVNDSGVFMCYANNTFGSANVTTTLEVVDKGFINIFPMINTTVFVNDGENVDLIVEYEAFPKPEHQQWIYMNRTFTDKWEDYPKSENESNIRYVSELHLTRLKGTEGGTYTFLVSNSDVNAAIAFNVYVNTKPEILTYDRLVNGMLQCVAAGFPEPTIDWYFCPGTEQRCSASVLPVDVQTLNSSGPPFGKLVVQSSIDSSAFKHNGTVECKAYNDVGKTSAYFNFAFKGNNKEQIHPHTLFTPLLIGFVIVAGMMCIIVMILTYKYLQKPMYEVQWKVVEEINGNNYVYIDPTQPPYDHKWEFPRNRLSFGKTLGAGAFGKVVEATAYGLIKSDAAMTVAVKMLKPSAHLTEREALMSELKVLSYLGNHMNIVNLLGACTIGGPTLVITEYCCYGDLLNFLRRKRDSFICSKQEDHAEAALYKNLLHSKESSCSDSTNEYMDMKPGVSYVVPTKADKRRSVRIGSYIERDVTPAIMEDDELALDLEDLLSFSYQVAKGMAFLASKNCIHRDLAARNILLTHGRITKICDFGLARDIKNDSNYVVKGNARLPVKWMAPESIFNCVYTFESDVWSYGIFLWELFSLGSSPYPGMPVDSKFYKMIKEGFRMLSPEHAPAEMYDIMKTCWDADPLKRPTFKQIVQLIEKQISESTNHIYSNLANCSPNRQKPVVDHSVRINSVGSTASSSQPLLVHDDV", "experiment": "KINOMEscan ScanTK", "type": "binding"}, "FLT3(ITD,F691L)": {"system": "FLT3(ITD,F691L)", "experiment": "KINOMEscan ScanTK", "type": "binding"}, "KIT(D816V)": {"biological_target": "T6, KIT(D816V) (Homo sapiens, UniProt P10721, D816V)", "T6 construct": "purchased Eurofins DiscoverX KINOMEscan (scanTK)", "T6 sequence (P10721 26-976 D816V)": "as the sequence (P10721 26-976 L576P) above, with P551L, D791V counted along it", "experiment": "KINOMEscan ScanTK", "type": "binding"}, "FLT3(ITD)": {"system": "FLT3(ITD)", "experiment": "KINOMEscan ScanTK", "type": "binding"}, "FGFR3": {"biological_target": "T7, FGFR3 (Homo sapiens, UniProt P22607)", "T7 construct": "purchased Eurofins DiscoverX KINOMEscan (scanTK)", "T7 sequence (P22607 23-806)": "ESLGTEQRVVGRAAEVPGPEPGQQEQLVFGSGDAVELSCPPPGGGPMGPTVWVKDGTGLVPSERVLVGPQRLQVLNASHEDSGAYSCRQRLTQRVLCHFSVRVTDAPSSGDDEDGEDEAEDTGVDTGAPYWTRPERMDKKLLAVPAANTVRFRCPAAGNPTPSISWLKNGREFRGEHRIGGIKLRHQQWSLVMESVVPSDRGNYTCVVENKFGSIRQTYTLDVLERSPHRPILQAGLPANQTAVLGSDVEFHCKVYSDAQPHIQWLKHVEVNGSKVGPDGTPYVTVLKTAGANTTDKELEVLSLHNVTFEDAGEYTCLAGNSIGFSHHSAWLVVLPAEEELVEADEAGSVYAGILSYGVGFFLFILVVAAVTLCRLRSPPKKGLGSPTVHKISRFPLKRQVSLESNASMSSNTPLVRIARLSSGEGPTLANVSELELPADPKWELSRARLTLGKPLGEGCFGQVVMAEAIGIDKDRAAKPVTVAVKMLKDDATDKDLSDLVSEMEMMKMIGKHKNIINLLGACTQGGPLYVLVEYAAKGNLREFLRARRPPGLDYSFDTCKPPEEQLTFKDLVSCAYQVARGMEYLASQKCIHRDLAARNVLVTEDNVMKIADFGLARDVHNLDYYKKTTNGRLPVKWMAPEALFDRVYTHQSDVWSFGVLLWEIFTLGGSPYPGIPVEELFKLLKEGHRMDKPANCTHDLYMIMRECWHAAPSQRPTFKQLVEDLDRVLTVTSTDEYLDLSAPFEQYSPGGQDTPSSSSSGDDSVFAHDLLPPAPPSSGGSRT", "experiment": "KINOMEscan ScanTK", "type": "binding"}, "[1]": {"biological_target": "JAK3, catalytic domain (795–1124) (Homo sapiens, UniProt P52333)", "experiment": "PhosphoSens enzymatic IC50 (AssayQuant)", "text": "Biochemical enzymatic IC50 data were generated by AssayQuant Technologies (Marlborough, MA) using the PhosphoSens Platform. […] Reaction rate versus log [inhibitor concentration] data were fitted to the four-parameter logistic equation [drawing 1]"}, "[2]": {"biological_target": "T8, ABL1(E255K)-phosphorylated (Homo sapiens, UniProt P00519, E255K)", "T8 construct": "purchased Eurofins DiscoverX KINOMEscan (scanTK)", "experiment": "KINOMEscan ScanTK", "type": "binding"}, "[3]": {"biological_target": "T9, ABL1(F317L)-nonphosphorylated (Homo sapiens, UniProt P00519, F317L)", "T9 construct": "purchased Eurofins DiscoverX KINOMEscan (scanTK)", "experiment": "KINOMEscan ScanTK", "type": "binding"}, "[4]": {"biological_target": "T10, ABL1(Y253F)-phosphorylated (Homo sapiens, UniProt P00519, Y253F)", "T10 construct": "purchased Eurofins DiscoverX KINOMEscan (scanTK)", "experiment": "KINOMEscan ScanTK", "type": "binding"}, "FYN": {"biological_target": "T11, FYN (Homo sapiens, UniProt P06241)", "T11 construct": "purchased Eurofins DiscoverX KINOMEscan (scanTK)", "experiment": "KINOMEscan ScanTK", "type": "binding"}, "EPHA2": {"biological_target": "T12, EPHA2 (Homo sapiens, UniProt P29317)", "T12 construct": "purchased Eurofins DiscoverX KINOMEscan (scanTK)", "T12 sequence (P29317 24-976)": "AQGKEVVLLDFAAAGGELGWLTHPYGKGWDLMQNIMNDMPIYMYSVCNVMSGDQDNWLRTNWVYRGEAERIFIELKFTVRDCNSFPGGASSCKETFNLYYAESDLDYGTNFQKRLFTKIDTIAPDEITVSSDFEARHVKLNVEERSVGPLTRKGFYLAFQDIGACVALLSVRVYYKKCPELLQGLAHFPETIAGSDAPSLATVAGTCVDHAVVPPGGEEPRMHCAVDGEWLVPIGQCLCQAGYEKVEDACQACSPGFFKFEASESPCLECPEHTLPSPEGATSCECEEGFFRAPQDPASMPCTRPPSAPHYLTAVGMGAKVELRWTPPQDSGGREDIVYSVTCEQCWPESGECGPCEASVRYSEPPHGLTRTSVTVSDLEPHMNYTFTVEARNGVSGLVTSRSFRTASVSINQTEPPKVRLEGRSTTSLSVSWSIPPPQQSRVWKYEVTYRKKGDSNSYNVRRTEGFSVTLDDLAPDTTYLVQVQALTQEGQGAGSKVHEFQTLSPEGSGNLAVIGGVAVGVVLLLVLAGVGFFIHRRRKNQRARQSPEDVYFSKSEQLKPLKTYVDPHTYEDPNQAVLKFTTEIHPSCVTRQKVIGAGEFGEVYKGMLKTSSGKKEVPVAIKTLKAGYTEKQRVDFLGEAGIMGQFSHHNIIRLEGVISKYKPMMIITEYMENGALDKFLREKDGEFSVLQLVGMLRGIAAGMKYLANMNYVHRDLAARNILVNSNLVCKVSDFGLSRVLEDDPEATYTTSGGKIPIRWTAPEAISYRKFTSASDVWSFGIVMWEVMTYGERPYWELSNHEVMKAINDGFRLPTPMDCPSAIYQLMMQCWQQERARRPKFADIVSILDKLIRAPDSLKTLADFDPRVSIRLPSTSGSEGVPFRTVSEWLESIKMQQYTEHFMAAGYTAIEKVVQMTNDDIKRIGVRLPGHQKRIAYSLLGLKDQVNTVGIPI", "experiment": "KINOMEscan ScanTK", "type": "binding"}, "INSR": {"biological_target": "T13, INSR (Homo sapiens, UniProt P06213)", "T13 construct": "purchased Eurofins DiscoverX KINOMEscan (scanTK)", "T13 sequence (P06213 28-1382)": "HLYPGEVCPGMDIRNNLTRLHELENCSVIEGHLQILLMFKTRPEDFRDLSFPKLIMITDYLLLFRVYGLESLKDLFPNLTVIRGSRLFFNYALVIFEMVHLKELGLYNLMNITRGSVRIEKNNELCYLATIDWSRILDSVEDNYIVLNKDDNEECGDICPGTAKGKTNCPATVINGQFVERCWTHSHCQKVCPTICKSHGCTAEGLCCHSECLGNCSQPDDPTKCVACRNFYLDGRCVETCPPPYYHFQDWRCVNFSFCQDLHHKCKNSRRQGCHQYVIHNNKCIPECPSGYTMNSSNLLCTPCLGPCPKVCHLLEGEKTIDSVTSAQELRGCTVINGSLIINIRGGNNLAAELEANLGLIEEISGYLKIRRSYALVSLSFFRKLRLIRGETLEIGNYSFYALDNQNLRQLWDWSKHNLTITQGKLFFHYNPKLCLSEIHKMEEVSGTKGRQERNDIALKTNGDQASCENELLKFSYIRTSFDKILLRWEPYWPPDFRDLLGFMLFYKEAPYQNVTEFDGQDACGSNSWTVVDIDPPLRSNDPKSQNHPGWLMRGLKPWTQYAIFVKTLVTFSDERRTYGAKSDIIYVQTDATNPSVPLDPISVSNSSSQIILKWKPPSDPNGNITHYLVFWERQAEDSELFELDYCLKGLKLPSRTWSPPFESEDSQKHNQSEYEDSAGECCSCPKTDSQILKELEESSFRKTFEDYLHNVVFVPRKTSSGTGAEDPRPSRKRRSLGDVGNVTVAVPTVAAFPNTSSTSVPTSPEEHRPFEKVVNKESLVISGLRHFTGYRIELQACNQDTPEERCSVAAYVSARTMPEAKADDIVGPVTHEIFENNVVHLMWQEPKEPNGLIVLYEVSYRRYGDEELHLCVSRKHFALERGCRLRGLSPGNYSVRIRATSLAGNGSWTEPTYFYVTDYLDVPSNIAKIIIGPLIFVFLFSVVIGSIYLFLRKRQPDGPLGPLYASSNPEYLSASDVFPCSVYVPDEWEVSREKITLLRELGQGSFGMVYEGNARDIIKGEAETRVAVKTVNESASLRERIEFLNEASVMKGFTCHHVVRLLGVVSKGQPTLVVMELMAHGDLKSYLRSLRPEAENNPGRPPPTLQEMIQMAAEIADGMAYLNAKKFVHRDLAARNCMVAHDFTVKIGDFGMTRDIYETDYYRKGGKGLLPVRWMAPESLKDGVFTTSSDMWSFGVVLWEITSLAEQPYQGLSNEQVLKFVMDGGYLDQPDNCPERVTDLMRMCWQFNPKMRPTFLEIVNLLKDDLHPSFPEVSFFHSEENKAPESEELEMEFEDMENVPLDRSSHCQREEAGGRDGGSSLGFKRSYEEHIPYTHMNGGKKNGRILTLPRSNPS", "experiment": "KINOMEscan ScanTK", "type": "binding"}, "CSF1R": {"biological_target": "T14, CSF1R (Homo sapiens, UniProt P07333)", "T14 construct": "purchased Eurofins DiscoverX KINOMEscan (scanTK)", "T14 sequence (P07333 20-972)": "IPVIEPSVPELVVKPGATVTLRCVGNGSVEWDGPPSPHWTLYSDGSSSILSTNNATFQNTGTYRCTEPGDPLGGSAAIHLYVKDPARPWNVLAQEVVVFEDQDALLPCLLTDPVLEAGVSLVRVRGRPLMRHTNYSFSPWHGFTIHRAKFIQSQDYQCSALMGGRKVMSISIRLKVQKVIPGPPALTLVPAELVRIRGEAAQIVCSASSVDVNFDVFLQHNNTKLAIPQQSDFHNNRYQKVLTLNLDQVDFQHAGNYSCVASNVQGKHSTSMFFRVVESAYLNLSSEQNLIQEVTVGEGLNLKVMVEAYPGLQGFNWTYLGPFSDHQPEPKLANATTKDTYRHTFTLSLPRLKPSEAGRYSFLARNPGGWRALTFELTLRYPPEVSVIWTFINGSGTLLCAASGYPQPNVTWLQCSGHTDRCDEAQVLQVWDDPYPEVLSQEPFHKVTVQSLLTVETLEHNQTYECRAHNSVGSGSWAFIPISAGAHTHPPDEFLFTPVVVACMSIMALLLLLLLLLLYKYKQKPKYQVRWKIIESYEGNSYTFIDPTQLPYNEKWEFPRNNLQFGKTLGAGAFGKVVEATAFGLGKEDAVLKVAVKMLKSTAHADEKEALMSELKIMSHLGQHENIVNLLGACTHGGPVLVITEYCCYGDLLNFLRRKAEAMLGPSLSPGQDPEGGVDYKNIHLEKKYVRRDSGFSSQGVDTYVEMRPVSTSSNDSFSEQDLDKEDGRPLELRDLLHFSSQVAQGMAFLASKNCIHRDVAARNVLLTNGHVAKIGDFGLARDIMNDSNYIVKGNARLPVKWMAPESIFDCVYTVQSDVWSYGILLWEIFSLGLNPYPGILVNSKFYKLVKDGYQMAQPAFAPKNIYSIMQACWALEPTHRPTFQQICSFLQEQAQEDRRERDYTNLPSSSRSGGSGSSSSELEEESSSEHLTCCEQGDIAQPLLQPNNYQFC", "experiment": "KINOMEscan ScanTK", "type": "binding"}, "VEGFR2": {"biological_target": "T15, VEGFR2 (Homo sapiens, UniProt P35968)", "T15 construct": "purchased Eurofins DiscoverX KINOMEscan (scanTK)", "experiment": "KINOMEscan ScanTK", "type": "binding"}, "RET(M918T)": {"biological_target": "T16, RET(M918T) (Homo sapiens, UniProt P07949, M918T)", "T16 construct": "purchased Eurofins DiscoverX KINOMEscan (scanTK)", "experiment": "KINOMEscan ScanTK", "type": "binding"}, "[5]": {"details": "@1000nM, read-out: % difference (compound - Ib %Control)"}}, "note": "Where two headings read alike, the source gives them in different places.", "data": [{"smiles": "Cc1cnc(S(C)(=O)=O)nc1N1CCCC(n2nc(-c3ccc(Oc4ccccc4)cc3)c3c(N)ncnc32)C1", "note": "(stereo not drawn) [Compound 8a, 1-(1-(5-Methyl-2-(methylsulfonyl)pyrimidin-4-yl)piperidin-3-yl)-3-(4-phenoxyphenyl)-1H-pyrazolo[3,4-d]pyrimidin-4-amine]", "values": [{"measurement": "difference in %Control from compound Ib at 1 µM", "setting": "FGFR1; @1000nM", "value": 44, "unit": "%"}, {"measurement": "remaining binding at 1 µM", "setting": "FGFR1; @1000nM, read-out: %Control", "value": 77, "unit": "%"}, {"measurement": "remaining binding at 1 µM", "setting": "FGFR1; read-out: %Control @1000nM", "value": 77, "unit": "%"}, {"measurement": "difference in %Control versus compound Ib at 1 µM", "setting": "EPHB6; @1000nM", "value": 6, "unit": "%"}, {"measurement": "remaining binding at 1 µM", "setting": "EPHB6; @1000nM, read-out: %Control", "value": 24, "unit": "%"}, {"measurement": "remaining binding at 1 µM", "setting": "EPHB6; read-out: %Control @1000nM", "value": 24, "unit": "%"}, {"measurement": "difference in %Control versus compound Ib at 1 µM", "setting": "FAK; @1000nM", "value": -1, "unit": "%"}, {"measurement": "remaining binding at 1 µM", "setting": "FAK; @1000nM, read-out: %Control", "value": 99, "unit": "%"}, {"measurement": "remaining binding at 1 µM", "setting": "FAK; read-out: %Control @1000nM", "value": 99, "unit": "%"}, {"measurement": "remaining binding at 1 µM", "setting": "YES; @1000nM, read-out: %Control", "value": 8.1, "unit": "%"}, {"measurement": "remaining binding at 1 µM", "setting": "YES; read-out: %Control @1000nM", "value": 8.1, "unit": "%"}, {"measurement": "difference in %Control versus Ib at 1 µM", "setting": "KIT(L576P); [5]", "value": 12, "unit": "%"}, {"measurement": "remaining binding at 1 µM", "setting": "KIT(L576P); @1000nM, read-out: %Control", "value": 44, "unit": "%"}, {"measurement": "remaining binding at 1 µM", "setting": "KIT(L576P); read-out: %Control @1000nM", "value": 44, "unit": "%"}, {"measurement": "%Control @1000nM", "setting": "FLT3(ITD,F691L)", "value": 96, "unit": "%"}, {"measurement": "% difference (compound - Ib %Control)", "setting": "FLT3(ITD,F691L); @1000nM", "value": -4, "unit": "%"}, {"measurement": "%Control", "setting": "FLT3(ITD,F691L); @1000nM", "value": 96, "unit": "%"}, {"measurement": "remaining binding at 1 µM", "setting": "KIT(D816V); @1000nM, read-out: %Control", "value": 74, "unit": "%"}, {"measurement": "remaining binding at 1 µM", "setting": "KIT(D816V); read-out: %Control @1000nM", "value": 74, "unit": "%"}, {"measurement": "%Control @1000nM", "setting": "FLT3(ITD)", "value": 91, "unit": "%"}, {"measurement": "% difference (compound - Ib %Control)", "setting": "FLT3(ITD); @1000nM", "value": 19, "unit": "%"}, {"measurement": "%Control", "setting": "FLT3(ITD); @1000nM", "value": 91, "unit": "%"}, {"measurement": "difference in %Control versus compound Ib at 1 µM", "setting": "FGFR3; @1000nM", "value": 44, "unit": "%"}, {"measurement": "remaining binding at 1 µM", "setting": "FGFR3; @1000nM, read-out: %Control", "value": 92, "unit": "%"}, {"measurement": "remaining binding at 1 µM", "setting": "FGFR3; read-out: %Control @1000nM", "value": 92, "unit": "%"}, {"measurement": "IC50", "setting": "[1]", "value": "> 1000", "unit": "nM"}, {"measurement": "difference in %Control from reference Ib at 1 µM", "setting": "[2]; [5]", "value": 12, "unit": "%"}, {"measurement": "remaining binding at 1 µM", "setting": "[2]; @1000nM, read-out: %Control", "value": 76, "unit": "%"}, {"measurement": "remaining binding at 1 µM", "setting": "[2]; read-out: %Control @1000nM", "value": 76, "unit": "%"}, {"measurement": "difference in % of control binding versus compound Ib at 1 µM", "setting": "[3]; @1000nM", "value": 44, "unit": "%"}, {"measurement": "remaining binding at 1 µM", "setting": "[3]; @1000nM, read-out: %Control", "value": 76, "unit": "%"}, {"measurement": "remaining binding at 1 µM", "setting": "[3]; read-out: %Control @1000nM", "value": 76, "unit": "%"}, {"measurement": "difference in %Control from compound Ib at 1 µM", "setting": "[4]; @1000nM", "value": 6, "unit": "%"}, {"measurement": "remaining binding at 1 µM", "setting": "[4]; @1000nM, read-out: %Control", "value": 83, "unit": "%"}, {"measurement": "remaining binding at 1 µM", "setting": "[4]; read-out: %Control @1000nM", "value": 83, "unit": "%"}, {"measurement": "difference in % of control versus compound Ib at 1 µM", "setting": "FYN; @1000nM", "value": 7.4, "unit": "%"}, {"measurement": "remaining binding at 1 µM", "setting": "FYN; @1000nM, read-out: %Control", "value": 17, "unit": "%"}, {"measurement": "remaining binding at 1 µM", "setting": "FYN; read-out: %Control @1000nM", "value": 17, "unit": "%"}, {"measurement": "difference in %Control versus compound Ib at 1 µM", "setting": "EPHA2; @1000nM", "value": -12, "unit": "%"}, {"measurement": "remaining binding at 1 µM", "setting": "EPHA2; @1000nM, read-out: %Control", "value": 88, "unit": "%"}, {"measurement": "remaining binding at 1 µM", "setting": "EPHA2; read-out: %Control @1000nM", "value": 88, "unit": "%"}, {"measurement": "difference in %Control versus compound Ib at 1 µM", "setting": "INSR; @1000nM", "value": -5, "unit": "%"}, {"measurement": "remaining binding at 1 µM", "setting": "INSR; @1000nM, read-out: %Control", "value": 95, "unit": "%"}, {"measurement": "remaining binding at 1 µM", "setting": "INSR; read-out: %Control @1000nM", "value": 95, "unit": "%"}, {"measurement": "difference in %Control versus compound Ib at 1 µM", "setting": "CSF1R; @1000nM", "value": 12, "unit": "%"}, {"measurement": "remaining binding at 1 µM", "setting": "CSF1R; @1000nM, read-out: %Control", "value": 92, "unit": "%"}, {"measurement": "remaining binding at 1 µM", "setting": "CSF1R; read-out: %Control @1000nM", "value": 92, "unit": "%"}, {"measurement": "remaining binding at 1 µM", "setting": "VEGFR2; @1000nM, read-out: %Control", "value": 90, "unit": "%"}, {"measurement": "remaining binding at 1 µM", "setting": "VEGFR2; read-out: %Control @1000nM", "value": 90, "unit": "%"}, {"measurement": "remaining binding at 1 µM", "setting": "RET(M918T); @1000nM, read-out: %Control", "value": 53, "unit": "%"}, {"measurement": "remaining binding at 1 µM", "setting": "RET(M918T); read-out: %Control @1000nM", "value": 53, "unit": "%"}]}]}
